Experimental data from US12448392B2, “Spiropiperidine derivatives” (89BIO LTD, priority 2016, dated 2025).
Counter-ions that a name gives are not always drawn. Like-named read-outs stand apart in the source and are kept apart here.

Target: T1, recombinant human baculovirus-expressed GST-tagged FASN (Homo sapiens, UniProt P49327)
T1 construct: GST
Assay: biochemical

[1] = 5 nM FASN, 150 μM NADPH, 10 μM acetyl-CoA, 25 μM malonyl-CoA, 90 minutes incubation, read-out: IC50 data for Compounds of Formula I, Activity

T1 sequence (P49327 whole entry): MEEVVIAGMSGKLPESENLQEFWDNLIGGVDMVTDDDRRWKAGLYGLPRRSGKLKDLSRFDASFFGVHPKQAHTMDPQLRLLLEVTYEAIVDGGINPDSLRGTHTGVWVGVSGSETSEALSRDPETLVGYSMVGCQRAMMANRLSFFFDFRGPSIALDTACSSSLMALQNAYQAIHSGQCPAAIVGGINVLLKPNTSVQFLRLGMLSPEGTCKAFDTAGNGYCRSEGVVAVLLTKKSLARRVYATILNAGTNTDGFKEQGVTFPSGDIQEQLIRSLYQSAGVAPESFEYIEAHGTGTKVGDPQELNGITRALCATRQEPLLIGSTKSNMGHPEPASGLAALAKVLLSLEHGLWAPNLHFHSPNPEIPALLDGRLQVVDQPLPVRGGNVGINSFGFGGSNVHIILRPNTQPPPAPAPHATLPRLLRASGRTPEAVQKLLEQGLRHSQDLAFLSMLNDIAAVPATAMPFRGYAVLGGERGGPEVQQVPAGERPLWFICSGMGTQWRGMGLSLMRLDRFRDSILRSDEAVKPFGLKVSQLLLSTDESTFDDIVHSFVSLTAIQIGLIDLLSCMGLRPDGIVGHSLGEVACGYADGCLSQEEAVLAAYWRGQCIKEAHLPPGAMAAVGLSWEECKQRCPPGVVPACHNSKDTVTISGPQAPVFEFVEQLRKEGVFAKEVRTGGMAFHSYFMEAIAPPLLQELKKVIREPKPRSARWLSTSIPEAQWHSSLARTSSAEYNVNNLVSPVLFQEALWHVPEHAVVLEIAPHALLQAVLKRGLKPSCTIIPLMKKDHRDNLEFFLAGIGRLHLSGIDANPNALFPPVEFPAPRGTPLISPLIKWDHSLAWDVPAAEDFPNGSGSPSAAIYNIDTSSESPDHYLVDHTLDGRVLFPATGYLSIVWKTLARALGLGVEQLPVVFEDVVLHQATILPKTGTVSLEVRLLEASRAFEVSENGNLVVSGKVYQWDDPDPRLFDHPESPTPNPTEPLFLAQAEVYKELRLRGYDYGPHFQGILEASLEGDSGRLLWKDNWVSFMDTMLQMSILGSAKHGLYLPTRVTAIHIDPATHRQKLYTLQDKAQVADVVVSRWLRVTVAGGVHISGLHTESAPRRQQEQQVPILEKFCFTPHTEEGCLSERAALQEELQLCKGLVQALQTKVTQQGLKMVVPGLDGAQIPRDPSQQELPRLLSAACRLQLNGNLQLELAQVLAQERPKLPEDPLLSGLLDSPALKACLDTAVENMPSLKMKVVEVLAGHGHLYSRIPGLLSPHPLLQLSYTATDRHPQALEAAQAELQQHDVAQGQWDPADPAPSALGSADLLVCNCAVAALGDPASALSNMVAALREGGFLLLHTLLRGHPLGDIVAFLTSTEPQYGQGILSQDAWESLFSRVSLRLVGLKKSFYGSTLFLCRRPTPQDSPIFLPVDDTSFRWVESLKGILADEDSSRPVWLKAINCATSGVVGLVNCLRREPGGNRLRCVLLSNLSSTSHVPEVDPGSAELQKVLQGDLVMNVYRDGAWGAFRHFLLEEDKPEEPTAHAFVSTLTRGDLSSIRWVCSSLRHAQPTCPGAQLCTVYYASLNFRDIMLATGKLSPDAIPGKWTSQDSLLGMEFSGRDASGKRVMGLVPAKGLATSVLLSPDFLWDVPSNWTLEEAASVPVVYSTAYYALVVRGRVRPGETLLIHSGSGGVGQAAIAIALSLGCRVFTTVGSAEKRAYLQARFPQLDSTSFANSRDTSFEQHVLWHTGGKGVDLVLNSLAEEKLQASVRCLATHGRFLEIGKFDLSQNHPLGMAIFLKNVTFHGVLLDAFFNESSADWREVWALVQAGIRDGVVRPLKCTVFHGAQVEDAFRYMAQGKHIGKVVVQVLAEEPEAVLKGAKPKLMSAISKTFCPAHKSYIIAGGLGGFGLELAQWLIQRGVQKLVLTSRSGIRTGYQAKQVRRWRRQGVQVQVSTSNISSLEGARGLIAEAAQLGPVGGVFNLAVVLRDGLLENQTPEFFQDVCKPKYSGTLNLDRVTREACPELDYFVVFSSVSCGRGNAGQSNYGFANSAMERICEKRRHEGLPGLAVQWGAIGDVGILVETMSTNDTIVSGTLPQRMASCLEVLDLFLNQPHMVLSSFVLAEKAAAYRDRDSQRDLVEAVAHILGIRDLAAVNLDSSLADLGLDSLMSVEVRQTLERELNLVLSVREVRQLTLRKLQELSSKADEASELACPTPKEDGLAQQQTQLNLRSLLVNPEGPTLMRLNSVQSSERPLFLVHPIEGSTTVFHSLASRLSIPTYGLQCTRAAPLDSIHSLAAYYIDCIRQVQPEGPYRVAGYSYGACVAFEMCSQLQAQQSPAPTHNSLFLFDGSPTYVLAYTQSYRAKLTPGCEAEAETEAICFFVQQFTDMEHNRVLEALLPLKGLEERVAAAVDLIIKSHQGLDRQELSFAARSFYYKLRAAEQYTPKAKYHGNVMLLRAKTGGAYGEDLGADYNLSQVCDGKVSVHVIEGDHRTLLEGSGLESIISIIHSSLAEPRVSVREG

Work on `Cc1nccc2cc(-c3ccc4c(c3)CCC3(CCN(C(=O)[C@H]5CCCO5)CC3)O4)ccc12` [Example 1, [6-(1-Methyl-6-isoquinolyl)spiro[chromane-2,4′-piperidine]-1′-yl]-[(2R)-tetrahydrofuran-2-yl]methanone, HCl] yielded an IC50 [1] of 1 to 99 nM.
Compound `O=C([C@H]1CCCO1)N1CCC2(CC1)OCc1cc(-c3cccnc3)ccc1O2` [Example 229, [6-(3-Pyridyl)spiro[4H-1,3-benzodioxine-2,4′-piperidine]-1′-yl]-[(2R)-tetrahydrofuran-2-yl]methanone] has an IC50 of 100 to 999 nM.
In the case of `O=C(C1CCC1)N1CCC2(CC1)OCc1cc(-c3cnc4ccccc4c3)ccc1O2` [Example 41, Cyclobutyl-[6-(3-quinolyl)spiro[4H-1,3-benzodioxine-2,4′-piperidine]-1′-yl]methanone], the IC50 is reported as 1 to 99 nM.
`CCNC(=O)N1CCC2(CCc3cc(-c4ccc5cccnc5c4Cl)ccc3O2)CC1` [Example 66, 6-(8-chloro-7-quinolyl)-N-ethyl-spiro[chromane-2,4′-piperidine]-1′-carboxamide] showed an IC50 [1] of 1 to 99 nM.
For `CONC(=O)N1CCC2(CC1)Cc1cc(-c3ccc4cccnc4c3OC)ccc1O2` [Example 166, N-Methoxy-5-(8-methoxy-7-quinolyl)spiro[3H-benzofuran-2,4′-piperidine]-1′-carboxamide], the IC50 [1] was 1000 to 10000 nM.
In the case of `Cc1nccc2cc(-c3ccc4c(c3)COC3(CCN(C(=O)NOC(C)C)CC3)O4)ccc12` [Example 182, N-Isopropoxy-6-(1-methyl-6-isoquinolyl)spiro[4H-1,3-benzodioxine-2,4′-piperidine]-1′-carboxamide], the IC50 is reported as 1 to 99 nM.
For `CCOC(=O)N1CCC2(CC1)OCc1cc(-c3cnc4ccccc4c3C)ccc1O2` [Example 138, Ethyl 6-(4-methyl-3-quinolyl)spiro[4H-1,3-benzodioxine-2,4′-piperidine]-1′-carboxylate], the IC50 was 100 to 999 nM.
`Cc1c(-c2ccc3c(c2)CCC2(CCN(C(=O)NOC(C)C)CC2)O3)ccc2ccnn12` [Example 116, N-Isopropoxy-6-(7-methylpyrazolo[1,5-a]pyridin-6-yl)spiro[chromane-2,4′-piperidine]-1′-carboxamide] was tested, and the IC50 [1] was 1 to 99 nM.
`CONC(=O)N1CCC2(CCc3cc(-c4ccc5cccnc5c4C)c(C)cc3O2)CC1` [Example 245, N-methoxy-7-methyl-6-(8-methyl-7-quinolyl)spiro[chromane-2,4′-piperidine]-1′-carboxamide] showed an IC50 [1] of 100 to 999 nM.
Compound `Cc1c(-c2ccc3c(c2)COC2(CCN(C(=O)NOC(C)C)CC2)O3)ccc2cccnc12` [Example 123, N-Isopropoxy-6-(8-methyl-7-quinolyl)spiro[4H-1,3-benzodioxine-2,4′-piperidine]-1′-carboxamide] has an IC50 of 1 to 99 nM.
`O=C([C@H]1CCCO1)N1CCC2(CCc3cc(-c4ccc5cccnc5c4Cl)ccc3O2)CC1` [Example 11, [6-(8-Chloro-7-quinolyl)spiro[chromane-2,4′-piperidine]-1′-yl]-[(2R)-tetrahydrofuran-2-yl]methanone, HCl] was tested, and the IC50 [1] was 1 to 99 nM.
In the case of `Cc1c(-c2ccc3c(c2)CCC2(CCN(C(=O)[C@H]4CCCO4)CC2)O3)cnc2ccccc12` [Example 4, [6-(4-Methyl-3-quinolyl)spiro[chromane-2,4′-piperidine]-1′-yl]-[(2R)-tetrahydrofuran-2-yl]methanone, HCl], the IC50 [1] is reported as 1 to 99 nM.
For `Cc1c(-c2ccc3c(c2)CCC2(CCN(C(=O)NO)CC2)O3)ccc2nccn12` [Example 141, 6-(5-Methylimidazo[1,2-a]pyridin-6-yl)spiro[chromane-2,4′-piperidine]-1′-carbohydroxamic acid], the IC50 [1] was 1000 to 10000 nM.
With `CCNC(=O)N1CCC2(CC1)OCc1cc(-c3ccc4ccnn4c3C)ccc1O2` [Example 126, N-Ethyl-6-(7-methylpyrazolo[1,5-a]pyridin-6-yl)spiro[4H-1,3-benzodioxine-2,4′-piperidine]-1′-carboxamide] the IC50 was 1 to 99 nM.
`Cc1c(-c2ccc3c(c2)CCC2(CCN(C(=O)NCC4CC4)CC2)O3)ccc2cccnc12` [Example 100, N-(Cyclopropylmethyl)-6-(8-methyl-7-quinolyl)spiro[chromane-2,4′-piperidine]-1′-carboxamide] showed an IC50 [1] of 1 to 99 nM.
For `CCONC(=O)N1CCC2(CC1)Cc1cc(-c3cnc4ccccc4c3C)ccc1O2` [Example 158, N-ethoxy-5-(4-methyl-3-quinolyl)spiro[3H-benzofuran-2,4′-piperidine]-1′-carboxamide], the IC50 [1] was 1000 to 10000 nM.
`COc1cc(-c2ccc3cccnc3c2C)cc2c1OC1(CCN(C(N)=O)CC1)OC2` [Example 247, 8-Methoxy-6-(8-methyl-7-quinolyl)spiro[4H-1,3-benzodioxine-2,4′-piperidine]-1′-carboxamide] showed an IC50 of 1000 to 10000 nM.
`O=C(NO)N1CCC2(CC1)OCc1cc(-c3ccc4cccnc4c3Cl)ccc1O2` [Example 136, 6-(8-Chloro-7-quinolyl)spiro[4H-1,3-benzodioxine-2,4′-piperidine]-1′-carbohydroxamic acid] gave an IC50 of 100 to 999 nM.
For `CONC(=O)N1CCC2(CC1)OCc1cc(-c3ccc4ccnn4c3C)ccc1O2` [Example 128, N-Methoxy-6-(7-methylpyrazolo[1,5-a]pyridin-6-yl)spiro[4H-1,3-benzodioxine-2,4′-piperidine]-1′-carboxamide], the IC50 was 1 to 99 nM.
`CCOC(=O)N1CCC2(CC1)OCc1cc(-c3ccc4cnc(Cl)cc4c3)ccc1O2` [Example 198, Ethyl 6-(3-chloro-6-isoquinolyl)spiro[4H-1,3-benzodioxine-2,4′-piperidine]-1′-carboxylate] gave an IC50 of 1000 to 10000 nM.
`Cc1nccc2cc(-c3ccc4c(c3)CCC3(CCN(C(=O)C5CC5)CC3)O4)ccc12` [Example 25, Cyclopropyl-[6-(1-methyl-6-isoquinolyl)spiro[chromane-2,4′-piperidine]-1′-yl]methanone] showed an IC50 [1] of 100 to 999 nM.
With `NC(=O)N1CCC2(CC1)OCc1cc(-c3ccc4cccnc4c3Cl)ccc1O2` [Example 131, 6-(8-Chloro-7-quinolyl)spiro[4H-1,3-benzodioxine-2,4′-piperidine]-1′-carboxamide] the IC50 was 100 to 999 nM.
`Cc1c(-c2ccc3c(c2)CCC2(CCN(C(N)=O)CC2)O3)ccc2c(O)ccnc12` [Example 251, 6-(4-Hydroxy-8-methyl-7-quinolyl)spiro[chromane-2,4′-piperidine]-1′-carboxamide] showed an IC50 [1] of 1000 to 10000 nM.
Compound `O=C([C@H]1CCCO1)N1CCC2(CC1)OCc1cc(-c3ccc4cccnc4c3Cl)ccc1O2` [Example 59, [6-(8-Chloro-7-quinolyl)spiro[4H-1,3-benzodioxine-2,4′-piperidine]-1′-yl]-[(2R)-tetrahydrofuran-2-yl]methanone] has an IC50 of 1 to 99 nM.
For `O=C(C1CC1)N1CCC2(CC1)OCc1cc(-c3cccnc3)ccc1O2` [Example 225, Cyclopropyl-[6-(3-pyridyl)spiro[4H-1,3-benzodioxine-2,4′-piperidine]-1′-yl]methanone, HCl], the IC50 was 1000 to 10000 nM.
`O=C(C1CC1)N1CCC2(CC1)OCc1cc(-c3ccc4cccnc4c3)ccc1O2` [Example 32, Cyclopropyl-[6-(7-quinolyl)spiro[4H-1,3-benzodioxine-2,4′-piperidine]-1′-yl]methanone] was tested, and the IC50 was 1 to 99 nM.
`O=C(C1CC1)N1CCC2(CC1)OCc1cc(-c3ccccn3)ccc1O2` [Example 219, Cyclopropyl-[6-(2-pyridyl)spiro[4H-1,3-benzodioxine-2,4′-piperidine]-1′-yl]methanone, HCl] gave an IC50 of 1000 to 10000 nM.
Compound `CONC(=O)N1CCC2(CCc3cc(-c4ccc5cccnc5c4C)cc(Cl)c3O2)CC1` [Example 250, 8-Chloro-N-methoxy-6-(8-methyl-7-quinolyl)spiro[chromane-2,4′-piperidine]-1′-carboxamide] has an IC50 [1] of 100 to 999 nM.
